According to US9255257B2, “PmST1 mutants for chemoenzymatic synthesis of sialyl lewis X compounds” (THE REGENTS OF THE UNIVERSITY OF CALIFORNIA, priority 2011, dated 2016):

Assays:
[1] = molecular target: T1, Pasteurella multocida PmST1 mutant M144D of SEQ ID NO: 13 (M120D of Δ24PmST1, SEQ ID NO: 3) (Pasteurella multocida, UniProt Q15KI8, M144D); test: α2-3-sialyltransferase activity, LacβMU as acceptor; assay type: biochemical; conditions: apparent, donor, LacβMU 1 mM, Tris-HCl pH 8.5, 37° C.
Method: (§1) Site-directed mutagenesis, expression and purification of PmST1 mutants. Site-directed mutagenesis was performed using the QuikChange multi-site-directed mutagenesis kit from Stratagene according to the manufacturer's protocol. The primers used were 5′-[…]-3′ (SEQ ID NO:35) for M144D; 5′-[…]a[…] -3′ (SEQ ID NO:36) for M144H; 5′-[…]-3′ (SEQ ID NO:37) for A35D; and 5′-[…]-3′ (SEQ ID NO:38) for A35H. The expression and purification of the mutants were performed as previously described for the WT PmST1 .
(§2) Kinetics of the α2-3-sialyltransferase activity of PmST1 mutants by HPLC analysis. With LacβMU as the acceptor substrate, the reactions were performed in duplicate at 37° C. for 10 min (M144D) or 4 min (M144H) in a reaction mixture (10 μL) containing Tris-HCl (100 mM, pH 8.5), an enzyme (5 μg mL^−1), and different concentrations (0.2, 0.5, 1.0, 2.0, and 5.0 mM) of LacβMU with a fixed concentration (1 mM) of CMP-Neu5Ac or different concentrations (0.2, 0.5, 1.0, 2.0, 5.0, and 10.0 mM) of CMP-Neu5Ac with a fixed concentration (1 mM) of LacβMU. With Le^xβMU as the acceptor substrate, the reactions were carried out in duplicate at 37° C. for 9 min (M144D) or 10 min (M144H) in a reaction mixture (10 μL) containing CAPSO (100 mM, pH 9.5), an enzyme (M144D, 39 μg mL^−1 or M144H, 5 μg mL^−), and various concentrations of Le^xβMU (1.0, 5.0, 10.0, 15.0, 25.0, and 35.0 mM) with a fixed concentration (1 mM) of CMP-Neu5Ac or various concentrations (0.2, 0.5, 1.0, 2.0, 5.0, 10.0, 20.0, and 40.0 mM) of CMP-Neu5Ac with a fixed concentration (1 mM) of Le^xβMU. Reactions were stopped by adding 10 μL of pre-chilled ethanol. The mixtures were incubated on ice for 30 min and centrifuged at 13,000 rpm for 5 min. The supernatants were diluted with 25% acetonitrile and kept on ice until aliquots of 8 μL were injected and analyzed by the Shimadzu LC-6AD system equipped with a membrane on-line degasser, a temperature control unit, and a fluorescence detector (Shimadzu RF-10AXL). A reverse-phase Premier C18 column (250×4.6 mm i.d., 5 μm particle size, Shimadzu) protected with a C18 guard column cartridge was used. The mobile phase was 25% acetonitrile. The fluorophore (MU)-labeled compounds were detected by excitation at 325 nm and emission at 372 nm. The apparent kinetic parameters were obtained by fitting the experimental data (the average values of duplicate assay results) into the Michaelis-Menten equation using Grafit 5.0.

[2] = molecular target: T2, Pasteurella multocida PmST1 mutant M144H of SEQ ID NO: 13 (M120H of Δ24PmST1, SEQ ID NO: 5) (Pasteurella multocida, UniProt Q15KI8, M144H); test: as above; assay type: biochemical; conditions: apparent, donor, LacβMU 1 mM, Tris-HCl pH 8.5, 37° C.
Method: as §1, §2

[3] = molecular target: T1, Pasteurella multocida PmST1 mutant M144D of SEQ ID NO: 13 (M120D of Δ24PmST1, SEQ ID NO: 3); test: α2-3-sialyltransferase activity, Le^xβMU as acceptor; assay type: biochemical; conditions: apparent, donor, Le^xβMU 1 mM, CAPSO pH 9.5, 37° C.
Method: as §1, §2

[4] = molecular target: T2, Pasteurella multocida PmST1 mutant M144H of SEQ ID NO: 13 (M120H of Δ24PmST1, SEQ ID NO: 5); test: as above; assay type: biochemical; conditions: apparent, donor, Le^xβMU 1 mM, CAPSO pH 9.5, 37° C.
Method: as §1, §2

[5] = molecular target: T1, Pasteurella multocida PmST1 mutant M144D of SEQ ID NO: 13 (M120D of Δ24PmST1, SEQ ID NO: 3); test: CMP-Neu5Ac (donor) hydrolysis activity, capillary electrophoresis; assay type: biochemical; conditions: apparent, Tris-HCl pH 8.5, 37° C., 15 min
Method: as §1
(§3) Kinetics of the donor hydrolysis activity of PmST1 and mutants by capillary electrophoresis analysis. […] The reactions were stopped by adding 10 μL of pre-chilled ethanol. The mixtures were incubated on ice for 30 min and centrifuged at 13,000 rpm for 5 min. The supernatants were diluted with borate buffer (25 mM, pH 9.5) and aliquotes of 5 μL each were injected to a Beckman Coulter P/ACE™ MDQ Capillary Electrophoresis system equipped with a capillary (60 cm×75 μm i.d.) and monitored at 254 nm. The apparent kinetic parameters were obtained by fitting the experimental data (the average values of duplicate assay results) into the Michaelis-Menten equation using Grafit 5.0.

[6] = molecular target: T2, Pasteurella multocida PmST1 mutant M144H of SEQ ID NO: 13 (M120H of Δ24PmST1, SEQ ID NO: 5); test: as above; assay type: biochemical; conditions: apparent, Tris-HCl pH 8.5, 37° C., 15 min
Method: as §1, §3

[7] = molecular target: Pasteurella multocida α2-3-sialyltransferase 1 (PmST1), wild type (WT), SEQ ID NO: 13 (Pasteurella multocida, UniProt Q15KI8); conditions: apparent, donor, with LacβMU, read-out: Km for CMP-Neu5Ac; cited from earlier work

CC(=O)N[C@H]1[C@H]([C@H](O)[C@H](O)CO)O[C@](OP(=O)(O)OC[C@H]2O[C@@H](n3ccc(N)nc3=O)[C@H](O)[C@@H]2O)(C(=O)O)C[C@@H]1O [CMP-Neu5Ac]
kcat (CMP-Neu5Ac) [1]: 1.9 ± 0.1 s⁻¹
kcat (CMP-Neu5Ac) [2]: 21 ± 1 s⁻¹
kcat (CMP-Neu5Ac) [3]: 0.59 ± 0.01 s⁻¹
kcat (CMP-Neu5Ac) [4]: 0.93 ± 0.02 s⁻¹
kcat [5]: 6.5 ± 0.1 s⁻¹
kcat [6]: 71 ± 6 s⁻¹
Km [7]: 440 µM
